According to patent US10738028B2, “Spiro three-membered ring, spiro five-membered ring peptide deformylase inhibitor and use thereof in antibacteria and anti-tumor” (priority 2016, dated 2020):

Columns and labels:
Assay type in all cases: cell-based
[1] = system: methicillin-sensitive Staphylococcus epidermidis (MSSE); test: MIC, two-fold agar dilution (CLSI), clinical isolates
How it was run: (§1)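 Samples are serially diluted two-fold in agar following CLSI guidance. Plates are then inoculated with the tested strains. The lowest inhibiting concentration is recorded as MIC.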

[2] = system: methicillin-resistant Staphylococcus epidermidis (MRSE); test: as above
How it was run: as §1

[3] = system: Enterococcus faecium (EFM); test: as above
How it was run: as §1

[4] = system: Streptococcus pneoumoniae (SPN); test: as above
How it was run: as §1

[5] = system: Enterococcus faecalis (EFA); test: as above
How it was run: as §1

[6] = system: methicillin-resistant Staphylococcus aureus (MRSA); test: as above
How it was run: as §1

[7] = system: methicillin-sensitive Staphylococcus aureus (MSSA); test: as above
How it was run: as §1

[8] = system: Escherichia coli (including ESBLs, non-ESBLs); test: as above
How it was run: as §1

[9] = system: Moraxella catarrhalis (BCA); test: as above
How it was run: as §1

[10] = system: HCT-116 colorectal cancer cell line; test: CCK-8 proliferation inhibition; conditions: concentration of 30 μM; 72 hours; CCK-8; 30 µM
How it was run: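 Proliferation over 72 hours of compound treatment was measured with CCK-8 against a 1‰ DMSO control.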

[11] = system: MGC-803 gastric cancer cell line; test: CCK-8 proliferation inhibition; conditions: concentration of 30 μM
How it was run: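 Using media specific to each line (1640 for MGC-803 and Jurkat, F12 for PC3, DMEM high glucose for MCF-7, each with 10% newborn bovine serum), cells at 2000/well were treated for 72 h with serially formulated compounds, then assessed with CCK-8 diluted 1:10.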

[12] = system: A549 lung cancer cell line; test: CCK-8 proliferation inhibition; conditions: Homo sapiens, A549, 72 h, concentration of 30 μM
How it was run: (§2)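 Plating at 2000 cells/well, then incubation overnight at 37° C. Next, a range of compound concentrations for 72 hours (control 1‰ DMSO). Finally, medium decanted and CCK-8 diluted 1:10 added.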

[13] = system: BEL-7402 liver cancer cell line; test: CCK-8 proliferation inhibition; conditions: concentration of 30 μM, 72 hours, 30 µM
How it was run: as §2

With `O=CN(O)C[C@@H](CC1CCCC1)C(=O)N1CC2(CC2)C[C@H]1C(=O)Nc1nccs1` (stereo in doubt) [Example 40, (S)-5-((S)-3-cyclopentyl-2-((N-hydroxyformamido)methyl)propionyl)-N-(thiazol-2-yl)-5-spiro[2.4]heptane-6-carboxamide] the Anti-bacterial activity (MIC), strain MSSE 15-3 ([1]; clinical isolate MSSE 15-3) was 0.5 µg/mL, the Anti-bacterial activity (MIC), strain MSSE 15-4 ([1]; clinical isolate MSSE 15-4) was 0.5 µg/mL and the Anti-bacterial activity (MIC), strain MSSE 15-5 ([1]; clinical isolate MSSE 15-5) was 0.25 µg/mL. The Anti-bacterial activity (MIC), strain MSSE 15-6 ([1]; clinical isolate MSSE 15-6) was 0.25 µg/mL, the Anti-bacterial activity (MIC), strain MRSE 15-1 ([2]; clinical isolate MRSE 15-1) was 0.5 µg/mL and the Anti-bacterial activity (MIC), strain MRSE 15-2 ([2]; clinical isolate MRSE 15-2) was 0.5 µg/mL. It also gave an Anti-bacterial activity (MIC), strain MRSE 15-3 ([2]; clinical isolate MRSE 15-3) of 0.5 µg/mL, an Anti-bacterial activity (MIC), strain MRSE 15-7 ([2]; clinical isolate MRSE 15-7) of 0.5 µg/mL and an Anti-bacterial activity (MIC), strain EFM 15-1 ([3]; clinical isolate EFM 15-1) of 1 µg/mL. The Anti-bacterial activity (MIC), strain EFM 15-2 ([3]; clinical isolate EFM 15-2) was 1 µg/mL, the Anti-bacterial activity (MIC), strain EFM 15-3 ([3]; clinical isolate EFM 15-3) was 0.25 µg/mL and the Anti-bacterial activity (MIC), strain EFM 15-4 ([3]; clinical isolate EFM 15-4) was 1 µg/mL. For the same compound, the Anti-bacterial activity (MIC), strain EFM 15-5 ([3]; clinical isolate EFM 15-5) was 1 µg/mL, the Anti-bacterial activity (MIC), strain EFM 15-6 ([3]; clinical isolate EFM 15-6) was 1 µg/mL and the Anti-bacterial activity (MIC), strain SPN 16-2 ([4]; clinical isolate SPN 16-2) was 0.25 µg/mL. The Anti-bacterial activity (MIC), strain SPN 16-4 ([4]; clinical isolate SPN 16-4) was 4 µg/mL, the Anti-bacterial activity (MIC), strain EFA 15-1 ([5]; clinical isolate EFA 15-1) was 4 µg/mL and the Anti-bacterial activity (MIC), strain EFA 15-2 ([5]; clinical isolate EFA 15-2) was 4 µg/mL. For the same compound, the Anti-bacterial activity (MIC), strain EFA 15-3 ([5]; clinical isolate EFA 15-3) was 4 µg/mL, the Anti-bacterial activity (MIC), strain EFA 15-4 ([5]; clinical isolate EFA 15-4) was 4 µg/mL and the Anti-bacterial activity (MIC), strain EFA 15-5 ([5]; clinical isolate EFA 15-5) was 4 µg/mL. The Anti-bacterial activity (MIC), strain EFA 15-6 ([5]; clinical isolate EFA 15-6) was 4 µg/mL, the Anti-bacterial activity (MIC), strain EFA 15-9 ([5]; clinical isolate EFA 15-9) was 4 µg/mL and the Anti-bacterial activity (MIC), strain MRSA 15-1 ([6]; clinical isolate MRSA 15-1) was 0.5 µg/mL. It also gave an Anti-bacterial activity (MIC), strain MRSA 15-2 ([6]; clinical isolate MRSA 15-2) of 0.5 µg/mL, an Anti-bacterial activity (MIC), strain MRSA 15-3 ([6]; clinical isolate MRSA 15-3) of 0.25 µg/mL and an Anti-bacterial activity (MIC), strain MRSA 15-4 ([6]; clinical isolate MRSA 15-4) of 0.25 µg/mL. The Anti-bacterial activity (MIC), strain MSSA 15-3 ([7]; clinical isolate MSSA 15-3) was 0.5 µg/mL, the Anti-bacterial activity (MIC), strain MSSA 15-4 ([7]; clinical isolate MSSA 15-4) was 0.5 µg/mL and the Anti-bacterial activity (MIC), strain MSSA 15-5 ([7]; clinical isolate MSSA 15-5) was 0.5 µg/mL. It also gave an Anti-bacterial activity (MIC), strain MSSA 15-6 ([7]; clinical isolate MSSA 15-6) of 0.5 µg/mL, an Anti-bacterial activity (MIC), strain ECO+ 15-1 ([8]; clinical isolate ECO+ 15-1) of 32 µg/mL and an Anti-bacterial activity (MIC), strain ECO+ 15-2 ([8]; clinical isolate ECO+ 15-2) of 32 µg/mL. For the same compound, the Anti-bacterial activity (MIC), strain ECO+ 15-3 ([8]; clinical isolate ECO+ 15-3) was 32 µg/mL, the Anti-bacterial activity (MIC), strain ECO+ 15-4 ([8]; clinical isolate ECO+ 15-4) was 32 µg/mL and the Anti-bacterial activity (MIC), strain ECO− 15-1 ([8]; clinical isolate ECO− 15-1) was 32 µg/mL. It also gave an Anti-bacterial activity (MIC), strain ECO− 15-2 ([8]; clinical isolate ECO− 15-2) of 32 µg/mL, an Anti-bacterial activity (MIC), strain ECO− 15-3 ([8]; clinical isolate ECO− 15-3) of 32 µg/mL and an Anti-bacterial activity (MIC), strain ECO− 15-4 ([8]; clinical isolate ECO− 15-4) of 32 µg/mL. It also gave an Anti-bacterial activity (MIC), strain BCA 14-1 ([9]; clinical isolate BCA 14-1) of 1 µg/mL, an Anti-bacterial activity (MIC), strain BCA 14-4 ([9]; clinical isolate BCA 14-4) of 1 µg/mL and an Anti-bacterial activity (MIC), strain BCA 14-5 ([9]; clinical isolate BCA 14-5) of 0.5 µg/mL. For the same compound, the Anti-bacterial activity (MIC), strain BCA 14-6 ([9]; clinical isolate BCA 14-6) was 0.5 µg/mL, the Anti-bacterial activity (MIC), strain BCA 14-7 ([9]; clinical isolate BCA 14-7) was 0.25 µg/mL and the Anti-bacterial activity (MIC), strain BCA 14-8 ([9]; clinical isolate BCA 14-8) was 0.5 µg/mL. For the same compound, the Anti-bacterial activity (MIC), strain BCA 14-10 ([9]; clinical isolate BCA 14-10) was 0.2 µg/mL, the HCT116 inhibition rate/% [10] was 78% and the inhibition at 30 µM ([11]; Homo sapiens, MGC-803, 72 h) was greater than 50%. For the same compound, the “Inhibition of proliferation, Gastric cancer MGC-803” value ([11]; 72 hours, 30 µM) was 63%, the inhibition at 30 µM [12] was 30% and the “Inhibition of proliferation, Liver cancer BEL-7402” value [13] was 73%.
